Results reported in patent publication US9278086B2, “Combination therapy and uses thereof for treatment and prevention of parasitic infection and disease” (The Royal Institution for the Advancement of …, priority 2010, dated 2016).

What was measured:
Assay type in all cases: in vivo
[1] = test system: Plasmodium chabaudi; test: 4-day test, P. chabaudi (10^7 pRBC i.v.) in pantetheinase-sufficient C57BL/6 mice, blood parasitemia days 4 and 5; settings: cysteamine 170 mg/kg i.p. alone, days 0-3
Procedure: (§1) A/J and C57BL/6 (B6) mice were purchased from the Jackson Laboratories (Bar Harbor, Me.) and were housed at McGill University according to the guidelines of the Canadian Council on Animal Care. An LDH virus-free isolate of P. chabaudi AS was maintained by weekly passage in A/J mice. Mice were infected intravenously into the tail vein (i.v.) with 10^6 or 10^7 pRBC suspended in pyrogen-free saline. Following infection, the percentage of pRBC was determined daily on thin blood smears stained with Dif-Quik™ (Dade Behring, Newark, Del.), as described (Fortin A, et al. (2001) Proc Natl Acad Sci USA 98: 10793-10798).
(§2) Cysteamine hydrochloride (Sigma, Burlington ON) was prepared in PBS. Chloroquine hydrochloride, artesunate and dihydroartemisinin were provided by Dafra Pharmaceuticals; chloroquine was prepared in PBS, artesunate and DHA were prepared in 5% sodium bicarbonate and diluted in water to appropriate concentrations. All solutions were prepared fresh daily, filter sterilized and injections were performed intra-peritoneally (i.p) or subcutaneously (s.c.) for 4 days or according to treatment regimen. Mice were weighed prior to treatment to determine appropriate doses and injection volumes ranged from 100-400 μL per mouse. In the case of animals treated with two drugs, artemisinin derivatives were administered first (due to the short half life of cysteamine), followed by cysteamine 5-10 minutes later on alternate sides. Untreated control animals were injected with PBS alone.
Groups with normally distributed data points were compared using parametric unpaired t-tests, while groups with non-Gaussian distributions were compared using non-parametric Mann-Whitney tests. Survival differences were analyzed using the Log-Rank test. […] Standard error of percent inhibition was calculated from individual mice compared to the mean parasitemia level of the control group.
The effect of Cys on the potency and efficacy of the anti-malarial artemisinin derivatives was tested. […] Synergy (Tallarida R J (2001) J Pharmacol Exp Ther 298: 865-872) is defined as a total anti-malarial activity (reduction in blood parasitemia compared to untreated controls in a standard 4-day test) of the two compounds administered together being greater than the sum of the independent activities of the two compounds given alone. We tested combinations of Cys and either artesunate (ART) or dihydroartemisinin (DHA), the bioactive form of artemisinin. Pantetheinase-deficient mice were infected with P. chabaudi (10^7 pRBC, i.v.) and treated with Cys (170 mg/kg) and/or sub-optimal doses of ART (0.2 or 0.5 mg/kg) (FIG. 3A) or DHA (0.15 or 0.3 mg/kg) (FIG. 3B) from day 0-3 and parasitemia was monitored on days 4 and 5. […] Potentiation of the anti-malarial activity of ART (0.5 mg/kg) by Cys was also clearly evident in these C57BL/6 mice at both days 4 and 5 post-infection, with combined treatment causing a 65-71% reduction in parasitemia compared to PBS controls, greater than either compound tested alone (13-29%) (TABLE 1).

[2] = test system: Plasmodium chabaudi; test: Progression, resolution and survival of lethal P. chabaudi infection (10^6 pRBC i.v.) in A/J mice; settings: Cys alone 60 mg/kg, days 0-3
Procedure: as §1, §2
It was investigated if low dose Cys could potentiate standard doses of ART that show therapeutic activity in vivo and concurrently determined possible long-term effects on patent parasitemia, resolution of infection and survival in a lethal infection model. In this protocol, mice were infected with 10^6 pRBC P. chabaudi (i.v.) and treated with Cys (60 mg/kg) and/or ART (0.5, 1, 2, 5 and 10 mg/kg) for 4 days (days 0-3), while blood parasitemia and survival were followed for 22 days. Control animals treated with either PBS or Cys alone (60 mg/kg) developed high parasite burdens, which peaked at day 6, and all mice succumbed to the infection by day 7 (FIGS. 5A and 5C). […] Likewise, although all mice treated with 0.5 mg/kg ART succumbed to the infection early (day 8), mice additionally receiving Cys survived until day 9; moreover, addition of Cys to 1.0 mg/kg ART completely rescued animals from lethality of infection, with 100% survival in this group (FIGS. 5B, 5C).

[3] = test system: Plasmodium chabaudi; test: Progression of P. chabaudi infection (10^6 pRBC i.v.) in pantetheinase-sufficient B6 mice; settings: Cys 60 mg/kg added to Art
Procedure: as §1, §2
To investigate whether the effects on parasite burden over the course of infection would also be observed with a pantetheinase-sufficient mouse strain, a similar experiment was performed using female B6 mice. Groups of mice were infected with 10^6 P. chabaudi pRBC i.v. and treated with PBS, 1 mg/kg or 30 mg/kg of Art, or 1 mg/kg or 30 mg/kg of Art plus 60 mg/kg of Cys for 4 days. […] As in A/J mice, the effect of Cys addition to 1 mg/kg of Art has a clear effect on early parasite replication at day 6 (FIG. 6B). […] B6 mice were able to completely clear parasite burdens and survive the infection, even in the control PBS-treated group.

[4] = test system: Plasmodium berghei ANKA; test: Plasmodium berghei ANKA infection (cerebral malaria model) in C57BL/6J mice, parasitemia and survival; settings: Cysteamine alone
Procedure: FIGS. 8A and 8B show the results of two independent experiments on the effect of cysteamine and artesunate combinations on the progression of Plasmodium berghei ANKA infection (parasitemia). Groups of 5 adult 18-20 g C57BL/6J males and females were infected intravenously with 1×10^6 erythrocytes parasitized with P. berghei ANKA at time “0”. Two hours later, mice were injected i.p with either Artemisinin alone or with Artemisinin/Cysteamine combinations (at the indicated concentrations in mg/kg body weight). In the case of the latter, Artemisinin was injected first in one quadrant, and cysteamine was injected second, 10-15 minutes later in another quadrant. The drug treatment was further repeated at days 1, 2 and 3 post-infection to emulate the standard 4-day test used in anti-malarial drug discovery. Starting at day 5, blood was collected, thin blood smears were prepared, and parasitemia was determined (400 erythrocytes counted, expressed as percentage parasitized erythrocytes). Error bars show standard deviations on the mean; and
FIGS. 9A and 9B show the results of two independent experiments on the effect of cysteamine and artesunate combinations on the survival of Plasmodium berghei ANKA-infected mice. Infection and drug administration were performed as described above for FIGS. 8A and 8B. Animals were monitored for the appearance and severity of cerebral symptoms (CM phase, shown as rectangle in graph), and moribund animals were euthanized, and time of death was recorded.
Intravenous infection with Plasmodium berghei ANKA is an accepted mouse model of cerebral malaria (CM) (Hunt, N. H. et al. 2006, Int. J. Parasitol. 36: 569-582). The infection causes the following pathology. First, there is appearance of blood parasitemia, starting at days 3 or 4, which can go up to 10% by day 7-8. Starting at day 5-6, there is emergence of cerebral symptoms caused by permeability of the blood brain barrier, concomitant to trapping of parasitized red cells in the microvasculature and acute pathological host inflammatory response in situ. This cerebral phase quickly progresses from tremors, to paralysis, to coma, and is uniformly lethal in mice by days 8-10. In this model, progress of infection and possibly drug effects may be monitored by a) appearance and intensity of blood parasitemia (between days 5-8), b) appearance of cerebral symptoms, and c) lethality.

SMILES: NCCS [Cysteamine]
- Inhibition of parasitemia Day 4 [1]: 13 % PBS control
- Inhibition of parasitemia Day 5 [1]: 25 % PBS control
- day at which parasite burdens peaked [2]: 6 days
- day by which all mice succumbed to the infection [2]: ≤ 7 days
- recrudescent parasitemia around day 14 [3]: eliminated the appearance of recrudescent parasitemia
- effect on survival of P. berghei-infected animals [4]: minor positive effect on survival
